Assay results as given in ChEMBL document CHEMBL3885881, “DrugMatrix”.

Organism: Rattus norvegicus
Test: DrugMatrix - Regimen: Daily Repeat
Type: toxicity, organism-based, Sprague-Dawley
Set-up: regimen Daily Repeat, gender Male, age 6-8 weeks
Conditions: in vivo, po, route oral GAVAGE, vehicle .5 % CMC; for ABSOLUTE BASOPHIL / ABSOLUTE EOSINOPHIL / ABSOLUTE LYMPHOCYTE / ABSOLUTE MONOCYTE / ABSOLUTE SEGMENTED NEUTROPHIL / BASOPHIL / EOSINOPHIL / ERYTHROCYTE COUNT / HEMATOCRIT / HEMOGLOBIN / LEUKOCYTE COUNT / LYMPHOCYTE / MEAN CORPUSCULAR HEMOGLOBIN / MEAN CORPUSCULAR HEMOGLOBIN CONCENTRATION / MEAN CORPUSCULAR VOLUME / MONOCYTE / NEUTROPHIL / NUCLEATED RED BLOOD CELLS / PLATELET COUNT: tissue Blood; for ALANINE AMINOTRANSFERASE / ALBUMIN / ALKALINE PHOSPHATASE / ASPARTATE AMINOTRANSFERASE / BLOOD UREA NITROGEN / CARBON DIOXIDE / CHLORIDE / CHOLESTEROL / CREATINE PHOSPHOKINASE / CREATININE / GLUCOSE / LACTATE DEHYDROGENASE / LIPASE / PHOSPHORUS / POTASSIUM / SODIUM / TOTAL BILIRUBIN / TOTAL PROTEIN / URIC ACID: tissue Plasma
[1] = 2500 mg/kg, 120 h, dose level High, time 5 day
[2] = […], 72 h, dose 5.4 mg/Kg, dose level Low, time 3 day
[3] = […], 120 h, dose 5.4 mg/Kg, dose level Low, time 5 day

CN1CCC[C@@H]1CCO[C@](C)(c1ccccc1)c1ccc(Cl)cc1 [CLEMASTINE]
ABSOLUTE BASOPHIL [1]: 0 CELLS/uL
ABSOLUTE EOSINOPHIL [1]: 0 CELLS/uL
ABSOLUTE LYMPHOCYTE [1]: 7767.5 CELLS/uL
ABSOLUTE MONOCYTE [1]: 575 CELLS/uL
ABSOLUTE SEGMENTED NEUTROPHIL [1]: 8407.5 CELLS/uL
BASOPHIL [1]: 0%
EOSINOPHIL [1]: 0%
ERYTHROCYTE COUNT [1]: 7.67 x10E6/uL
HEMATOCRIT [1]: 45.5%
HEMOGLOBIN [1]: 18 G/DL
LEUKOCYTE COUNT [1]: 16.75 x10E3/uL
LYMPHOCYTE [1]: 45.5%
MEAN CORPUSCULAR HEMOGLOBIN [1]: 23.5 pg
MEAN CORPUSCULAR HEMOGLOBIN CONCENTRATION [1]: 39.55 G/DL
MEAN CORPUSCULAR VOLUME [1]: 59.4 fL
MONOCYTE [1]: 3.5%
NEUTROPHIL [1]: 51%
NUCLEATED RED BLOOD CELLS [1]: 0 /100WBC
PLATELET COUNT [1]: 1417 x10E3/uL
ALANINE AMINOTRANSFERASE [1]: 189 u/L
ALBUMIN [1]: 3.45 G/DL
ALKALINE PHOSPHATASE [1]: 274 u/L
ASPARTATE AMINOTRANSFERASE [1]: 822.5 u/L
BLOOD UREA NITROGEN [1]: 37 mg/dL
CARBON DIOXIDE [1]: 21.5 mmol/L
CHLORIDE [1]: 84 MEQ/L
CHOLESTEROL [1]: 24 mg/dL
CREATINE PHOSPHOKINASE [1]: 1389.5 u/L
CREATININE [1]: 0.24 mg/dL
GLUCOSE [1]: 68.5 mg/dL
LACTATE DEHYDROGENASE [1]: 1904 u/L
LIPASE [1]: 11 u/L
PHOSPHORUS [1]: 22.25 mg/dL
POTASSIUM [1]: 6.91 MEQ/L
SODIUM [1]: 139.35 MEQ/L
TOTAL BILIRUBIN [1]: 0.25 mg/dL
TOTAL PROTEIN [1]: 5.3 G/DL
URIC ACID [1]: 6.55 mg/dL
ABSOLUTE BASOPHIL [2]: 0 CELLS/uL
ABSOLUTE EOSINOPHIL [2]: 41.67 CELLS/uL
ABSOLUTE LYMPHOCYTE [2]: 12326.67 CELLS/uL
ABSOLUTE MONOCYTE [2]: 80.67 CELLS/uL
ABSOLUTE SEGMENTED NEUTROPHIL [2]: 1517.67 CELLS/uL
BASOPHIL [2]: 0%
EOSINOPHIL [2]: 0.33%
ERYTHROCYTE COUNT [2]: 5.26 x10E6/uL
HEMATOCRIT [2]: 33.9%
HEMOGLOBIN [2]: 13.3 G/DL
LEUKOCYTE COUNT [2]: 13.97 x10E3/uL
LYMPHOCYTE [2]: 88%
MEAN CORPUSCULAR HEMOGLOBIN [2]: 25.3 pg
MEAN CORPUSCULAR HEMOGLOBIN CONCENTRATION [2]: 39.23 G/DL
MEAN CORPUSCULAR VOLUME [2]: 64.53 fL
MONOCYTE [2]: 0.67%
NEUTROPHIL [2]: 11%
NUCLEATED RED BLOOD CELLS [2]: 0 /100WBC
PLATELET COUNT [2]: 1091.33 x10E3/uL
ALANINE AMINOTRANSFERASE [2]: 56 u/L
ALBUMIN [2]: 4.07 G/DL
ALKALINE PHOSPHATASE [2]: 313.67 u/L
ASPARTATE AMINOTRANSFERASE [2]: 78.33 u/L
BLOOD UREA NITROGEN [2]: 16 mg/dL
CARBON DIOXIDE [2]: 30 mmol/L
CHLORIDE [2]: 100.33 MEQ/L
CHOLESTEROL [2]: 87 mg/dL
CREATINE PHOSPHOKINASE [2]: 239.33 u/L
CREATININE [2]: 0.19 mg/dL
GLUCOSE [2]: 158.67 mg/dL
LACTATE DEHYDROGENASE [2]: 247.33 u/L
LIPASE [2]: 9.33 u/L
PHOSPHORUS [2]: 11.17 mg/dL
POTASSIUM [2]: 5.9 MEQ/L
SODIUM [2]: 141.47 MEQ/L
TOTAL BILIRUBIN [2]: 0.2 mg/dL
TOTAL PROTEIN [2]: 5.63 G/DL
URIC ACID [2]: 1.23 mg/dL
ABSOLUTE BASOPHIL [3]: 0 CELLS/uL
ABSOLUTE EOSINOPHIL [3]: 52.33 CELLS/uL
ABSOLUTE LYMPHOCYTE [3]: 12918 CELLS/uL
ABSOLUTE MONOCYTE [3]: 156.33 CELLS/uL
ABSOLUTE SEGMENTED NEUTROPHIL [3]: 1306.67 CELLS/uL
BASOPHIL [3]: 0%
EOSINOPHIL [3]: 0.33%
ERYTHROCYTE COUNT [3]: 5.68 x10E6/uL
HEMATOCRIT [3]: 35.67%
HEMOGLOBIN [3]: 14.13 G/DL
LEUKOCYTE COUNT [3]: 14.43 x10E3/uL
LYMPHOCYTE [3]: 89.33%
MEAN CORPUSCULAR HEMOGLOBIN [3]: 24.93 pg
MEAN CORPUSCULAR HEMOGLOBIN CONCENTRATION [3]: 39.67 G/DL
MEAN CORPUSCULAR VOLUME [3]: 62.87 fL
MONOCYTE [3]: 1.33%
NEUTROPHIL [3]: 9%
NUCLEATED RED BLOOD CELLS [3]: 0.33 /100WBC
PLATELET COUNT [3]: 866 x10E3/uL
ALANINE AMINOTRANSFERASE [3]: 51 u/L
ALBUMIN [3]: 4.57 G/DL
ALKALINE PHOSPHATASE [3]: 318.67 u/L
ASPARTATE AMINOTRANSFERASE [3]: 79.67 u/L
BLOOD UREA NITROGEN [3]: 14 mg/dL
CARBON DIOXIDE [3]: 30.33 mmol/L
CHLORIDE [3]: 101.33 MEQ/L
CHOLESTEROL [3]: 68.33 mg/dL
CREATINE PHOSPHOKINASE [3]: 200.33 u/L
CREATININE [3]: 0.16 mg/dL
GLUCOSE [3]: 155.33 mg/dL
LACTATE DEHYDROGENASE [3]: 118.67 u/L
LIPASE [3]: 10 u/L
PHOSPHORUS [3]: 10.77 mg/dL
POTASSIUM [3]: 6.13 MEQ/L
SODIUM [3]: 141.6 MEQ/L
TOTAL BILIRUBIN [3]: 0.2 mg/dL
TOTAL PROTEIN [3]: 6.3 G/DL
URIC ACID [3]: 1.47 mg/dL
